According to patent US20240240224A1, “FLUORESCENT D-TYPE AMINO ACID METABOLISM MARKER-BASED METHOD FOR DETECTING ANTIBACTERIAL DRUG SENSITIVITY TEST” (priority 2020, published 2024):
≈ marks a conversion by molar mass, not a printed value.

Columns and labels:
[1] = tested on: E. coli Ec13; experiment: BMD susceptibility test; assay type: cell-based, Escherichia coli; conditions: unit assumed
[2] = tested on: Pa ATCC 27853; experiment: BMD susceptibility test; assay type: cell-based, Pseudomonas aeruginosa; conditions: unit assumed
[3] = tested on: E. faecium Ef28; experiment: FaAST (FDAA metabolic labeling method); assay type: cell-based, Enterococcus faecium; conditions: unit assumed
Method: Take the colony to be tested that has been cultured overnight on the plate and fully mix it in normal saline to make a uniform bacterial solution. Dilute it into Cation-Adjusted Mueller Hinton Broth (CAMHB) culture medium to make a bacterial solution with OD600=0.05. • 2. Add 45 μl antibiotic solutions of different concentrations to 96-well plates (see Table 1 for antibiotic concentration gradient settings). • 3. Add 50 μl of the bacterial solution prepared in step 1 to the 96-well plate and mix well. • 4. Add 5 μl of 10 mM Cy5-DAA probe (final concentration 0.15 mM, see FIG. 1 for its structure) into each well, mix well, and cultivate in dark for 2 hours. • 5. Add 200 μl After PBS solution is diluted, the fluorescence intensity of each sample is detected by flow cytometry. […] The MIC (minimum inhibitory concentration) can be obtained by referring to this curve.

[4] = tested on: S. aureus ATCC29213; experiment: BMD susceptibility test; assay type: cell-based, Staphylococcus aureus; conditions: unit assumed
[5] = tested on: A. baumannii Ab16; experiment: FaAST (FDAA metabolic labeling); assay type: cell-based, Acinetobacter baumannii; conditions: unit assumed
Method in brief: (§1)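 Bacteria at OD600=0.05 in CAMHB mixed with antibiotic dilutions plus Cy5-DAA probe at 0.15 mM final, then incubated 2 h in the dark. Cell-wall labeling fluorescence measured by flow cytometry after PBS dilution.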

[6] = tested on: Pseudomonas aeruginosa PAE853; experiment: VITEK drug sensitivity test; assay type: cell-based; conditions: unit assumed
[7] = tested on: E.coli 1146; experiment: Vitek 2 drug sensitivity test; assay type: cell-based, Escherichia coli; as to Sensibility: key: S: Drug sensitive; R: Drug resistance
[8] = tested on: alveolar lavage fluid sample 0203, K. pneumoniae; experiment: FaAST (FDAA) susceptibility test of patient alveolar lavage fluid; assay type: cell-based, Klebsiella pneumoniae; conditions: unit assumed
Method: (§2) With reference to the flow chart of the rapid detection method of antimicrobial susceptibility test based on FDAA metabolic markers shown in FIG. 3, FDAA is used for the detection of antimicrobial susceptibility test of alveolar lavage fluid. The specific experimental steps are as follows: • 1. Mix bronchoalveolar lavage fluid (BALF, 10 ml) of patients with hospital acquired pneumonia with cation regulated broth medium (CAMHB, 10 ml) of twice the concentration to prepare the bacterial fluid to be tested. • 2. Add 45 μl antibiotic solutions of different concentrations to the 96-well plate separately (see Table 1 for antibiotic concentration gradient settings). • 3. Add 50 μl of the bacterial solution prepared in step 1 to the 96-well plate and mix well. • 4. Add 5 μl of 10 mM Cy5-DAA probe (final concentration 0.15 mM, see FIG. 1 for its structure) into each well, mix well, and then cultivate in dark for 2 hours. • 5. Add 200 μl PBS solution for dilution, and then use flow cytometry to detect the fluorescence intensity of each sample.
(§3) The results of antimicrobial susceptibility test of alveolar lavage fluid of seven patients using FDAA and BMD methods are shown in the following table. The drug-resistant bacteria are shown in bold.

[9] = tested on: alveolar lavage fluid sample 0226, K. pneumoniae; experiment: as above; assay type: cell-based, Klebsiella pneumoniae; conditions: unit assumed
Method: as §2, §3

[10] = tested on: Acinetobacter baumannii ABA16; experiment: VITEK drug sensitivity test; assay type: cell-based; conditions: unit assumed
[11] = tested on: K. pneumoniae Kp6; experiment: BMD susceptibility test; assay type: cell-based, Klebsiella pneumoniae; conditions: unit assumed
[12] = tested on: K. pneumoniae Kp9; experiment: BMD susceptibility test; assay type: cell-based, Klebsiella pneumoniae; conditions: unit assumed
[13] = tested on: K. pneumoniae Kp9; experiment: FaAST (FDAA metabolic labeling); assay type: cell-based, Klebsiella pneumoniae; conditions: unit assumed
Method in brief: as §1

[14] = tested on: K. pneumoniae Kp6; experiment: FaAST (FDAA metabolic labeling); assay type: cell-based, Klebsiella pneumoniae; conditions: unit assumed
Method in brief: as §1

[15] = tested on: S. aureus Sa23; experiment: BMD susceptibility test; assay type: cell-based, Staphylococcus aureus; conditions: unit assumed
[16] = tested on: E.coli 1113; experiment: FDAA metabolic labeling susceptibility test (Cy5-DAA probe, flow cytometry); assay type: cell-based, Escherichia coli; conditions: Escherichia coli; E.coli 1113; Cy5-DAA probe, 2 hours; read-out: MIC, FDAA
[17] = tested on: E. coli Ec11; experiment: BMD susceptibility test; assay type: cell-based, Escherichia coli; conditions: unit assumed
[18] = tested on: alveolar lavage fluid sample 0203, K. pneumoniae; experiment: BMD susceptibility test of patient alveolar lavage fluid; assay type: cell-based, Klebsiella pneumoniae; conditions: unit assumed
From the text: as §3

[19] = tested on: alveolar lavage fluid sample 0226, K. pneumoniae; experiment: as above; assay type: cell-based, Klebsiella pneumoniae; conditions: unit assumed
From the text: as §3

[20] = tested on: Acinetobacter baumannii ABA19; experiment: VITEK drug sensitivity test; assay type: cell-based; conditions: unit assumed

Which BMD (MIC) [1] does the source give for `C[C@H]1COc2c(N3CCN(C)CC3)c(F)cc3c(=O)c(C(=O)O)cn1c23` [Levofloxacin, levofloxacin] here?
The BMD (MIC) was 4 µg/mL.

What about the BMD (MIC) [2] of the same molecule?
The BMD (MIC) was 0.5 µg/mL.

What about the FaAST (MIC) [3] of the same molecule?
The FaAST (MIC) was 64 µg/mL.

What about the BMD (MIC) [4] of the same molecule?
Its BMD (MIC) is no more than 0.25 µg/mL.

What about the FaAST (MIC) [5] of the same molecule?
The FaAST (MIC) was 32 µg/mL.

And the MIC, VITEK [6]?
The MIC, VITEK was 0.5 µg/mL (≈ 1.38 µM).

What about the Sensibility [7] of the same molecule?
Its Sensibility is “R”.

What about the MIC ([7]; Escherichia coli) of the same molecule?
Its MIC is no less than 8 µg/mL.

And the FaAST (MIC) [8]?
The FaAST (MIC) was 0.25 µg/mL.

What about the FaAST (MIC) [9] of the same molecule?
Its FaAST (MIC) is 0.25 µg/mL.

What about the MIC, VITEK [10] of the same molecule?
The MIC, VITEK was 16 µg/mL (≈ 44.3 µM).

And the BMD (MIC) [11]?
Its BMD (MIC) is no more than 0.25 µg/mL.

And the BMD (MIC) [12]?
The BMD (MIC) was 32 µg/mL.

And the FaAST (MIC) [13]?
The FaAST (MIC) was 128 µg/mL.

What about the FaAST (MIC) [14] of the same molecule?
The FaAST (MIC) was 0.5 µg/mL.

What about the BMD (MIC) [15] of the same molecule?
Its BMD (MIC) is 1 µg/mL.

What about the MIC [16] of the same molecule?
Its MIC is no less than 16 µg/mL.

And the BMD (MIC) [17]?
Its BMD (MIC) is no more than 0.25 µg/mL.

And the BMD (MIC) [18]?
The BMD (MIC) was 0.25 µg/mL.

And the BMD (MIC) [19]?
The BMD (MIC) was 1 µg/mL.

And the MIC, VITEK [20]?
The MIC, VITEK was no more than 0.25 µg/mL.
